Converted amounts (≈) assume the structure as drawn. Where two headings read alike, the source gives them in different places.
How the values were obtained:
Format in all cases: cell-based
[1] = system: Streptococcus pneumoniae (ATCC 49619); experiment: Antibacterial MIC assay (microbroth dilution, CLSI)
Procedure, shortened: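 CLSI broth microdilution: 2-fold compound dilutions in cation-adjusted Mueller-Hinton broth supplemented with 3% lysed horse blood for S. pneumoniae, inoculum 5×10^5 CFU/mL from a 0.5 McFarland direct colony suspension, with growth control.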

[2] = system: Wolbachia pipientis in C6/36 cell line; experiment: Anti-Wolbachia high-content assay; settings: C6/36 (wAlbB) cells, 7 days at 26° C., 50% reduction of Wolbachia, read-out: EC50 Wolbachia pipientis in C6/36 cell line
Experimental: After 15 minutes, all media was removed from each well and fresh media (no stain) was added. Imaging of each well was accomplished using a Perkin Elmer Operetta high-content imaging system. Five fields per well were imaged using a confocal 60× objective with the Fluorescein filter (excitation filter: 460-490 nm; emission filter: 500-550 nm). Images were analyzed using the Perkin Elmer Harmony software to score each intact cell on the basis of texture complexity of the cytoplasm. Full details can be found in: […]. et al, J. Biomol.

[3] = system: Staphylococcus aureus, MRSA (ATCC 33591); experiment: Antibacterial MIC assay (microbroth dilution, CLSI); settings: read-out: MIC Staphylococcus aureus, MRSA (ATCC 33591)
Procedure, shortened: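 Microbroth dilution per CLSI M07-A10/M100-S25 in cation-adjusted Mueller-Hinton broth, with 3% lysed horse blood added for S. pneumoniae. Inoculum from a 0.5 McFarland direct colony suspension, diluted to 5×10^5 CFU/mL in the well. Compounds were 2-fold serially diluted; MIC read against a growth control.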

[4] = ATCC49619, microbroth dilution, 3% lysed horse blood, 35° C. for 16-20 hours, read-out: MIC Streptococcus pneumoniae (ATCC 49619)
[5] = microbroth dilution, cation-adjusted Mueller-Hinton broth, 35° C. for 16-20 hours
[6] = ATCC49619, read-out: MIC Streptococcus pneumoniae (ATCC 49619)

Structure (SMILES)	MIC [1, 4] [µg/mL]	EC50 [2] [nM]	MIC [3, 5] [µg/mL]	MIC [1, 6] [µg/mL]	MIC [3] [µg/mL]
C=C[C@]1(C)C[C@@H](OC(=O)COc2cc(CN(C)C)c3c(c2)B(O)OC3)[C@]2(C)[C@H](C)CC[C@]3(CCC(=O)[C@H]32)[C@@H](C)[C@@H]1O.Cl [Compound 13, (3aR,4R,5R,7S,8S,9R,9aS,12R)-8-hydroxy-4,7,9,12-tetramethyl-3-oxo-7-vinyldecahydro-4,9a-propanocyclopenta[8]annulen-5-yl 2-((4-((dimethylamino)methyl)-1-hydroxy-1,3-dihydrobenzo[c][1,2]oxaborol-6-yl)oxy)acetate Hydrochloride]	0.5 to 2	81	< 0.25		
C=C[C@]1(C)C[C@@H](OC(=O)COc2cc3c(c(C4CCNCC4)c2)COB3O)[C@]2(C)[C@H](C)CC[C@]3(CCC(=O)[C@H]32)[C@@H](C)[C@@H]1O [Compound 18, (3aR,4R,5R,7S,8S,9R,9aS,12R)-8-hydroxy-4,7,9,12-tetramethyl-3-oxo-7-vinyldecahydro-4,9a-propanocyclopenta[8]annulen-5-yl 2-((1-hydroxy-4-(piperidin-4-yl)-1,3-dihydrobenzo[c][1,2]oxaborol-6-yl)oxy)acetate]		> 1000	0.5 to 2 (≈ 0.842 to 3.37 µM)		
C=C[C@]1(C)C[C@@H](OC(=O)COc2ccc3c(c2)B(O)OC3CN)[C@]2(C)[C@H](C)CC[C@]3(CCC(=O)[C@H]32)[C@@H](C)[C@@H]1O.Cl (stereo partly drawn) [Compound 21, (3aR,4R,5R,7S,8S,9R,9aS,12R)-8-hydroxy-4,7,9,12-tetramethyl-3-oxo-7-vinyldecahydro-4,9a-propanocyclopenta[8]annulen-5-yl 2-((3-(aminomethyl)-1-hydroxy-1,3-dihydrobenzo[c][1,2]oxaborol-6-yl)oxy)acetate Hydrochloride]			0.5 to 2	< 0.25	
C=C[C@]1(C)C[C@@H](OC(=O)COc2ccc3c(c2OC)B(O)OC3)[C@]2(C)[C@H](C)CC[C@]3(CCC(=O)[C@H]32)[C@@H](C)[C@@H]1O [Compound 14, (3aR,4R,5R,7S,8S,9R,9aS,12R)-8-hydroxy-4,7,9,12-tetramethyl-3-oxo-7-vinyldecahydro-4,9a-propanocyclopenta[8]annulen-5-yl2-((1-hydroxy-7-methoxy-1,3-dihydrobenzo[c][1,2]oxaborol-6-yl)oxy)acetate]				0.5 to 2 (≈ 0.925 to 3.7 µM)	< 0.25
C=C[C@]1(C)C[C@@H](OC(=O)C[S@@+]([O-])c2ccc3c(c2)B(O)OC3)[C@]2(C)[C@H](C)CC[C@]3(CCC(=O)[C@H]32)[C@@H](C)[C@@H]1O [Compound 62, (3aR,4R,5R,7S,8S,9R,9aS,12R)-8-hydroxy-4,7,9,12-tetramethyl-3-oxo-7-vinyldecahydro-4,9a-propanocyclopenta[8]annulen-5-yl2-((R)-(1-hydroxy-1,3-dihydrobenzo[c][1,2]oxaborol-6-yl)sulfinyl)acetate]				0.5 to 2 (≈ 0.922 to 3.69 µM)	< 0.25
C=C[C@]1(C)C[C@@H](OC(=O)CSc2ccc3c(c2F)B(O)OC3)[C@]2(C)[C@H](C)CC[C@]3(CCC(=O)[C@H]32)[C@@H](C)[C@@H]1O [Compound 65, (3aR,4R,5R,7S,8S,9R,9aS,12R)-8-hydroxy-4,7,9,12-tetramethyl-3-oxo-7-vinyldecahydro-4,9a-propanocyclopenta[8]annulen-5-yl 2-((7-fluoro-1-hydroxy-1,3-dihydrobenzo[c][1,2]oxaborol-6-yl)thio)acetate]				0.5 to 2 (≈ 0.918 to 3.67 µM)	< 0.25

The next lines start with results.

MIC [1, 4] [µg/mL]	EC50 [2] [nM]	MIC [3, 5] [µg/mL]	Structure (SMILES)	MIC [1, 6] [µg/mL]	MIC [3] [µg/mL]
0.5 to 2 (≈ 0.902 to 3.61 µM)	78	0.5 to 2 (≈ 0.902 to 3.61 µM)	C=C[C@]1(C)C[C@@H](OC(=O)COc2ccc3c(c2)B(O)N(C)N=C3)[C@]2(C)[C@H](C)CC[C@]3(C[C@H](F)C(=O)[C@H]32)[C@@H](C)[C@@H]1O [Compound 84, (2S,3aR,4R,5R,7S,8S,9R,9aS,12R)-2-fluoro-8-hydroxy-4,7,9,12-tetramethyl-3-oxo-7-vinyldecahydro-4,9a-propanocyclopenta[8]annulen-5-yl 2-((1-hydroxy-2-methyl-1,2-dihydrobenzo[d][1,2,3]diazaborinin-7-yl)oxy)acetate]		
0.5 to 2 (≈ 0.81 to 3.24 µM)	613	0.5 to 2 (≈ 0.81 to 3.24 µM)	C=C[C@]1(C)C[C@@H](OC(=O)COc2ccc3c(c2)B(O)OC3CNS(C)(=O)=O)[C@]2(C)[C@H](C)CC[C@]3(CCC(=O)[C@H]32)[C@@H](C)[C@@H]1O (stereo partly drawn) [Compound 23, (3aR,4R,5R,7S,8S,9R,9aS,12R)-8-hydroxy-4,7,9,12-tetramethyl-3-oxo-7-vinyldecahydro-4,9a-propanocyclopenta[8]annulen-5-yl 2-((1-hydroxy-3-(methylsulfonamidomethyl)-1,3-dihydrobenzo[c][1,2]oxaborol-6-yl)oxy)acetate]		
< 0.25	27	< 0.25	C=C[C@]1(C)C[C@@H](OC(=O)COc2ccc3c(c2)B(O)OC3CN(C)C)[C@]2(C)[C@H](C)CC[C@]3(CCC(=O)[C@H]32)[C@@H](C)[C@@H]1O (stereo partly drawn) [Compound 27, (3aR,4R,5R,7S,8S,9R,9aS,12R)-8-hydroxy-4,7,9,12-tetramethyl-3-oxo-7-vinyldecahydro-4,9a-propanocyclopenta[8]annulen-5-yl 2-((3-((dimethylamino)methyl)-1-hydroxy-1,3-dihydrobenzo[c][1,2]oxaborol-6-yl)oxy)acetate]		
0.5 to 2 (≈ 0.918 to 3.67 µM)	193	< 0.25	C=C[C@]1(C)C[C@@H](OC(=O)COc2ccc3c(c2F)B(O)OC3)[C@]2(C)[C@H](C)CC[C@]3(C[C@H](O)C(=O)[C@H]32)[C@@H](C)[C@@H]1O [Compound 36, (2S,3aR,4R,5R,7S,8S,9R,9aS,12R)-2,8-dihydroxy-4,7,9,12-tetramethyl-3-oxo-7-vinyldecahydro-4,9a-propanocyclopenta[8]annulen-5-yl 2-((7-fluoro-1-hydroxy-1,3-dihydrobenzo[c][1,2]oxaborol-6-yl)oxy)acetate]		
0.5 to 2 (≈ 0.788 to 3.15 µM)	> 1000	4 to 32 (≈ 6.3 to 50.4 µM)	C=C[C@]1(C)C[C@@H](OC(=O)COc2ccc3c(c2F)B(O)N(S(C)(=O)=O)N=C3)[C@]2(C)[C@H](C)CC[C@]3(C[C@H](O)C(=O)[C@H]32)[C@@H](C)[C@@H]1O [Compound 77, (2S,3aR,4R,5R,7S,8S,9R,9aS,12R)-2,8-dihydroxy-4,7,9,12-tetramethyl-3-oxo-7-vinyldecahydro-4,9a-propanocyclopenta[8]annulen-5-yl 2-((8-fluoro-1-hydroxy-2-(methylsulfonyl)-1,2-dihydrobenzo[d][1,2,3]diazaborinin-7-yl)oxy)acetate]		
	> 1000	> 64	C=C[C@]1(C)C[C@@H](OC(=O)COc2cc3c(cn2)COB3O)[C@]2(C)[C@H](C)CC[C@]3(CCC(=O)[C@H]32)[C@@H](C)[C@@H]1O [Compound 100, (3aR,4R,5R,7S,8S,9R,9aS,12R)-8-hydroxy-4,7,9,12-tetramethyl-3-oxo-7-vinyldecahydro-4,9a-propanocyclopenta[8]annulen-5-yl 2-((1-hydroxy-1,3-dihydro-[1,2]oxaborolo[4,3-c]pyridin-6-yl)oxy)acetate]		
